Data as given in US20180098993A1, “USE OF (2R, 6R)-HYDROXYNORKETAMINE, (S)-DEHYDRON[…] OTHER STER[…] AND HYDROXYLATED METABOLITES OF (R,S)- KETAMINE IN THE TREATMENT OF DEPRESSION AND NEUROPATHIC PAIN” (THE UNITED STATES OF AMERICA, AS REPRESENTED BY THE …, priority 2011, published 2018).
Where a name gives a salt, the structure may show the parent alone. Read-outs that look alike come from different tables or passages of the source.

Key:
NMDA receptor = NMDA receptor inhibition; format: binding; conditions: for Ki: read-out: NMDAR Ki
Protocol: Certain compounds of Formula I discussed in this disclosure were tested in the above serine racemase assay, for NMDA receptor inhibition and inhibition of the nicotinic acetylcholine receptor subtype α7. The assay for nicotinic acetylcholorine receptor subtype α7 is given below in Example 6.

α7 nAChR = molecular target: T1, α7 nAChR (Rattus norvegicus, UniProt Q05941); experiment: whole-cell patch clamp, currents evoked by acetylcholine in KXα7R1; format: cell-based; conditions: for current evoked by 280 micromolar acetylcholine, normalized to current elicited by ACh alone (Mean): -80 mV, n=4; for inhibition at 0.1 µM: read-out: inhibition (α7) at 100 nM
T1 construct: expressed in transfected cells; host or cells: KXα7R1
T1 sequence (Q05941 23-502): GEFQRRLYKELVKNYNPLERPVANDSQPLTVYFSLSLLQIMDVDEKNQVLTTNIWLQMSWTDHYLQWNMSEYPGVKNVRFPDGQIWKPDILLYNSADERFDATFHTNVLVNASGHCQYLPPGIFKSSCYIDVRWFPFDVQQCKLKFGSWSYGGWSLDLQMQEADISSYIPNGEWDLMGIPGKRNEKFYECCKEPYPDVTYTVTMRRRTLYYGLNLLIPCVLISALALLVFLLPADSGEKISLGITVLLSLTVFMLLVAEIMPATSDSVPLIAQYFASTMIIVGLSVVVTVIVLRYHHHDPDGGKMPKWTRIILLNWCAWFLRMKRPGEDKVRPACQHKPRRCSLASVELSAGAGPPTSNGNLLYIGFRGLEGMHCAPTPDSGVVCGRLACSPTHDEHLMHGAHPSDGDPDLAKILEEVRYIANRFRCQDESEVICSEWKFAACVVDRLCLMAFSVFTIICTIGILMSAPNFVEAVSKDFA
Excerpt: (§1) Without wishing to be bound to any particular theory applicants believe certain compounds of Formula I exert activity via serine racemase inhibition. Since nicotinic acetylcholine receptors (nAChR) have been validated as a target in analgesia applicants investigated the activity of DHNK at two nAChR subtypes, α7 and α3β4 nAChR. Patch-clamp technique in a whole-cell configuration was used to examine functional activity of ketamine, norketamine, DHNK and HNK metabolites at the α7 and α3β4 neuronal […] receptors (nAChRs). The activity of these compounds at the α3β4 nAChR was investigated using nicotine-stimulated 86Rb+ efflux assays in HEK293 cells expressing the α3β4 nAChR.
Since nicotinic acetylcholine receptors (nAChR) have been validated as a target in analgesia we have investigated the activity of DHNK ([…]) at two nAChR subtypes, α7 and α3β4 nAChR. The patch clamp in a whole cell configuration was used to examine functional activity of ketamine, norketamine, and the DHNK and HNK metabolites on currents evoked by 280 micromolar acetylcholine in the KXα7R1. The data was obtained at −80 mV and normalized to the amplitude of current elicited by ACh alone, n=4.

α3β4 nAChR = molecular target: T2, α3β4 nAChR (Rattus norvegicus, UniProt P04757+P12392); experiment: nicotine-stimulated 86Rb+ efflux in HEK293 cells expressing α3β4 nAChR; whole-cell patch clamp; format: cell-based
T2 construct: expressed in transfected cells; host or cells: HEK293
T2 sequence (P04757 26-499): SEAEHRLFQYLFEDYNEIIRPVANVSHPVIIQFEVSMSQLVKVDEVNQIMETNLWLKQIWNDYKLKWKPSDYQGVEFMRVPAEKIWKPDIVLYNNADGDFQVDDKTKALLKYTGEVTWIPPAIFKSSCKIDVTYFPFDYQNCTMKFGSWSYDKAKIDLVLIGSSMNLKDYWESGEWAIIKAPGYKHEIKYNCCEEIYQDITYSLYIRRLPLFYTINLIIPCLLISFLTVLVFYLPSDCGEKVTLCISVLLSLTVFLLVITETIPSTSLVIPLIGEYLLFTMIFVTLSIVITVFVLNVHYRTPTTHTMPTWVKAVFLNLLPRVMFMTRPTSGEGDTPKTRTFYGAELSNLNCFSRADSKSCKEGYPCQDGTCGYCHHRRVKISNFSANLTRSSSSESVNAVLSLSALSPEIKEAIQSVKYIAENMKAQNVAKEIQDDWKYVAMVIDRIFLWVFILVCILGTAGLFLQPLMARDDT
T2 sequence (P12392 21-495): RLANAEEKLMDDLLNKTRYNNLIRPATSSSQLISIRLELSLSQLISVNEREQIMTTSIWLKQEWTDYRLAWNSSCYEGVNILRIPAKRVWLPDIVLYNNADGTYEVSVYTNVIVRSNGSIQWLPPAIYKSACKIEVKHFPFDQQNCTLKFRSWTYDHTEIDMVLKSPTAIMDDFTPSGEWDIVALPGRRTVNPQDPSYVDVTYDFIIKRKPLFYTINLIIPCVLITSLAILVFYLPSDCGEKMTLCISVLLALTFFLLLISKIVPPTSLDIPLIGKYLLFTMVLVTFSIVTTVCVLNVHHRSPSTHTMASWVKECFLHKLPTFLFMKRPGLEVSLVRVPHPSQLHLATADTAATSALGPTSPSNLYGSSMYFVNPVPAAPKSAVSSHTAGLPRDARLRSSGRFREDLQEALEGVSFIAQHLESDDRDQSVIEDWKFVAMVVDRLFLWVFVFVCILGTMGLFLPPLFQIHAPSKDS
Excerpt: as §1

serine racemase [1] = molecular target: T3, serine racemase (Homo sapiens, UniProt Q9GZT4); experiment: intracellular D-serine concentration in 1321N1 astrocytoma cells; format: cell-based; set-up: host or cells: 1321N1 astrocytoma; conditions: read-out: IC50, reduction of intracellular D-serine
T3 sequence (Q9GZT4 1-340): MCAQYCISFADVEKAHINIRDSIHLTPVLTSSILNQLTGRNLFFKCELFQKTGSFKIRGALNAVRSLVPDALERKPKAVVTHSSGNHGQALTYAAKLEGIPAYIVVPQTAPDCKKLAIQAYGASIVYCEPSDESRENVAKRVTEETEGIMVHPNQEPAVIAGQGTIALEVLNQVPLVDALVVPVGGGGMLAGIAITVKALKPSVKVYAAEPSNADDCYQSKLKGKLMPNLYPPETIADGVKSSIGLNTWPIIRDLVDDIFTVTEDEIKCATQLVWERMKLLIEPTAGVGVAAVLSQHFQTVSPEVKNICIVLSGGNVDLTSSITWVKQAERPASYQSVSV
Excerpt: Applicants have determined that ketamine inhibits NMDA (N-methyl-D-aspartic acid) receptors by inhibiting serine racemase and thereby limiting the concentration of D-serine available to interact with the NMDA receptor. An indirect inhibition of SR activity by ketamine or ketamine metabolites through the inhibition of nAChR activity was hypothesized. PC12 cells were chosen to test the hypothesis since the cell line expresses active SR and α7 and α3β4 nAChRs.
The cell lines selected for this study were PC-12 pheochromocytoma derived from rat adrenal medulla, human-derived 1321N1 astrocytoma, rat-derived C6 glioblastoma, and human-derived HepG2 hepatocellular carcinoma. All of the cell lines were obtained from ATCC (Manassas, Va., USA). […]
(§2) Instrumentation: The CE separations were performed with a P/ACE MDQ system equipped with a laser-induced fluorescence detector (Beckman Instruments, Fullerton, Calif., USA). The laser-induced fluorescence detection was carried out with excitation at 488 nm and emission at 520 nm. […] Quantification was accomplished using area ratios calculated for FITC-D-Ser with FITCD-Arg as the internal standard, where the concentration of the internal standard was set at 5 μM. […]

[2] = plasma half-life and oral bioavailability (statement); conditions: in vivo
serine racemase [3] = molecular target: T3, serine racemase; experiment: serine racemase inhibition assay (intracellular D-serine by CE-LIF); format: cell-based; conditions: 36 h incubation, cell line not stated
Excerpt: The cell lines selected for this study were PC-12 pheochromocytoma derived from rat adrenal medulla, human-derived 1321N1 astrocytoma, rat-derived C6 glioblastoma, and human-derived HepG2 hepatocellular carcinoma. All of the cell lines were obtained from ATCC (Manassas, Va., USA). The PC12 cells were maintained in RPMI7 1640 with L-Gln supplemented with 10% horse serum (heat inactivated), 5% FBS, 1% sodium pyruvate solution, 1% HEPES buffer and 1% penicillin/streptomycin solution. The 1321N1 and C6 cells were maintained in DMEM with L-Gln supplemented with 10% FBS and 1% penicillin/streptomycin solution. The HepG2 cells were maintained in E-MEM supplemented with 1% L-Gln, 10% FBS, 1% sodium pyruvate solution and 1% penicillin/streptomycin solution.
as §2

SMILES	Ki (NMDA receptor) [nM]	current evoked by 280 micromolar acetylcholine, normalized to current elicited by ACh alone (Mean) (α7 nAChR; 100 nM)	current evoked by 280 micromolar acetylcholine, normalized to current elicited by ACh alone (Mean) (α7 nAChR; 1000 nM)	inhibition at 0.1 µM (α7 nAChR) [%]	activity at α7 nAChR (α7 nAChR)	other results
N[C@]1(c2ccccc2Cl)CCC[C@H](O)C1=O (stereo in doubt) [(2R,6R)-HNK, (2R,6R)-6-Hydroxynorketamine Hydrochloride]	> 100000	0.489	0.354	51	–	–
N[C@@]1(c2ccccc2Cl)CCC=CC1=O [(R)-DHNK, (R)-5,6-dehydroxynorketamine hydrochloride]	74600	–	–	–	–	–
N[C@@]1(c2ccccc2Cl)CCC[C@@H](O)C1=O [(2R,6R; 2S,6S)-hydroxynorketamine]	–	–	–	–	–	activity at the NMDA receptor (NMDA receptor): not active
N[C@]1(c2ccccc2Cl)CCC=CC1=O [(S)-DHNK, (S)-1-amino-2′-chloro-5,6-dihydro-[1,1′-biphenyl]-2(1H)-one]	39000	–	–	–	–	–
NC1(c2ccccc2Cl)CCC=CC1=O (racemic) [(R,S)-DHNK, (R,S)-dehydronorketamine]	–	0.407	0.205	–	potent inhibitor	activity at α3β4 nAChR (α3β4 nAChR): inactive; IC50 (serine racemase [1]): 16.4 nM; IC50 (α7 nAChR; read-out: IC50 (α7)): ~50 nM; IC50 (α7 nAChR; read-out: IC50 at α7 nAChR): 50 nM; plasma half-life [2]: long; oral bioavailability [2]: orally bioavailable
CNC1(c2ccccc2Cl)CCCCC1=O (centres unmarked) [ketamine]	–	–	–	–	inactive	IC50 (α3β4 nAChR): 10000 nM
N[C@]1(c2ccccc2Cl)CCCCC1=O [(S)-norKet, (S)-norketamine, reference compound]	2250 ± 220	–	–	–	–	IC50 (serine racemase [3]): 50 to 120 nM
N[C@@]1(c2ccccc2Cl)CCC[C@@H](O)C1=O [(2S,6S)-HNK, (2S,6S)-6-Hydroxynorketamine Hydrochloride]	21200	0.461	0.361	54	–	plasma half-life [2]: long; oral bioavailability [2]: orally bioavailable
N[C@@]1(c2ccccc2Cl)CCCCC1=O [(R)-norKet, (R)-norketamine, reference compound]	26500	–	–	–	–	IC50 (serine racemase [3]): 40 to 80 nM
NC1(c2ccccc2Cl)CCCCC1=O (racemic) [(R,S)-norKet, norketamine]	–	0.548	0.287	46	inactive	–
